We go through four compounds from patent US10065990B2, “Cyclic peptide compound, and preparation method, pharmaceutical composition and use thereof” (HANGZHOU GUANYU BIO-MEDICAL CO., LTD, priority 2013, dated 2018).

For experiment [1], the system named is N-87 (human gastric cancer cells). Nature of the experiment: MTT cancer cell growth inhibition. In kind it is cell-based. The following applies: Homo sapiens, 72 h, MTT, 72 hours incubation, N-87 cells; read-out: GI50 N-87. The procedure, abridged: (§1)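 Absorbance at 570 nm of DMSO-dissolved formazan, formed during a 4 h MTT incubation, served as the viability measure. Cells had been exposed 72 h to drug at 10^−5–10^−10 M final; GI50 was calculated from these readings.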

The test system of experiment [2] is PANC-1 (Pac-1, human pancreatic cancer cells). Nature of the experiment: MTT cancer cell growth inhibition. The following applies: Homo sapiens, PANC-1, 72 h, MTT, 72 hours incubation, read-out: GI50 PAN. In kind it is cell-based. The procedure, abridged:
as §1

Experiment [3] concerns MCF-7 (human breast cancer cells). Put plainly: MTT cancer cell growth inhibition. In kind it is cell-based. The following applies: Homo sapiens, MCF7, 72 h, 72 hours incubation, read-out: GI50 MCF. The procedure, abridged:
as §1

Experiment [4] relates to MDA-MB-231 (breast cancer cells). Nature of the experiment: MTT cancer cell growth inhibition. In kind it is cell-based. The following applies: Homo sapiens, MDA-MB-231, 72 h, read-out: GI50 MDA-MB-231, MTT, 72 hours incubation, MDA-MB-231 cells. The procedure, abridged: as §1
In experiment [5] the test system is Hela (human cervical cancer cells). Nature of the experiment: MTT cancer cell growth inhibition. The experiment is classed as cell-based. The following applies: Homo sapiens, HeLa, 72 h, MTT, 72 hours incubation, read-out: GI50 Hela. The procedure, abridged: as §1
Experiment [6] deals with DU145 (human prostate cancer cells). Nature of the experiment: MTT cancer cell growth inhibition. In kind it is cell-based. The following applies: Homo sapiens, DU-145, 72 h, MTT, 72 hours incubation, read-out: GI50 Du1. The procedure, abridged:
as §1

For experiment [7], the system named is Bel-7402 (human hepatoma cells). Put plainly: MTT cancer cell growth inhibition. The experiment is classed as cell-based. The following applies: Homo sapiens, Bel-7402, 72 h, MTT, 72 hours incubation, Bel-7402 cells; read-out: GI50 Bel-7402. The essentials: as §1
Experiment [8] has as its system HCC827 (human non-small cell lung cancer cells). Put plainly: MTT cancer cell growth inhibition. The experiment is classed as cell-based. The following applies: Homo sapiens, HCC827, 72 h, MTT, 72 hours incubation, HCC827 cells; read-out: GI50 HCC827. The essentials: as §1
Experiment [9] has as its system K562 (human leukemia cells). Nature of the experiment: MTT cancer cell growth inhibition. The experiment is classed as cell-based. The following applies: Homo sapiens, K562, 72 h, MTT, 72 hours incubation, K562 cells; read-out: GI50 K562. The essentials: as §1
Experiment [10] relates to MOLT-4 (human acute lymphoblastic leukemia cells). Put plainly: MTT cancer cell growth inhibition. The experiment is classed as cell-based. The following applies: Homo sapiens, MOLT-4, 72 h, MTT, 72 hours incubation, read-out: GI50 Mol. The essentials:
as §1

The subject of experiment [11] is SGC-7901 (human gastric cancer cells). Put plainly: MTT cancer cell growth inhibition. The experiment is classed as cell-based. The following applies: Homo sapiens, SGC-7901, 72 h, MTT, 72 hours incubation, SGC-7901 cells; read-out: GI50 SGC-7901. The procedure, abridged:
as §1

The subject of experiment [12] is A549 (human lung cancer cells). Nature of the experiment: MTT cancer cell growth inhibition. The experiment is classed as cell-based. The following applies: Homo sapiens, A549, 72 h, MTT, 72 hours incubation, read-out: GI50 A54. The essentials:
as §1

The subject of experiment [13] is lncap (prostate cancer cells). Put plainly: MTT cancer cell growth inhibition. The experiment is classed as cell-based. The following applies: Homo sapiens, LNCaP, 72 h, MTT, 72 hours incubation, read-out: GI50 lnca. The procedure, abridged:
as §1

Experiment [14] relates to H1975 (non-small cell lung adenocarcinoma). Nature of the experiment: MTT cancer cell growth inhibition. In kind it is cell-based. The following applies: Homo sapiens, NCI-H1975, 72 h, MTT, 72 hours incubation, H1975 cells; read-out: GI50 H1975. The essentials:
as §1

Experiment [15] relates to U937 (human leukemia cells). Nature of the experiment: MTT cancer cell growth inhibition. In kind it is cell-based. The following applies: Homo sapiens, U-937, 72 h, MTT, 72 hours incubation, read-out: GI50 U93. The procedure, abridged: as §1
For experiment [16], the system named is KBM-5 (human chronic myelogenous leukemia). Nature of the experiment: MTT cancer cell growth inhibition. The following applies: Homo sapiens, KBM5, 72 h, MTT, 72 hours incubation, KBM-5 cells; read-out: GI50 KBM-5. In kind it is cell-based. The procedure, abridged: as §1
In experiment [17] the test system is HT1080 (human fibrosarcoma cells). Put plainly: MTT cancer cell growth inhibition. In kind it is cell-based. The following applies: Homo sapiens, HT-1080, 72 h, MTT, 72 hours incubation, read-out: GI50 HT1. The essentials:
as §1

Experiment [18] deals with Huh-7 (human hepatoma cells). Nature of the experiment: MTT cancer cell growth inhibition. In kind it is cell-based. The following applies: Homo sapiens, Huh-7, 72 h, MTT, 72 hours incubation, Huh-7 cells; read-out: GI50 Huh-7. The essentials: as §1
The test system of experiment [19] is BGC-823 (human gastric cancer cells). Nature of the experiment: MTT cancer cell growth inhibition. In kind it is cell-based. The following applies: Homo sapiens, BGC-823, 72 h, MTT, 72 hours incubation, read-out: GI50 BG. The essentials:
as §1

Experiment [20] relates to KBM5-T315I (human chronic myelogenous leukemia). Nature of the experiment: MTT cancer cell growth inhibition. In kind it is cell-based. The following applies: Homo sapiens, 72 h, MTT, 72 hours incubation, KBM5-T315I cells; read-out: GI50 KBM5-T315I. The procedure, abridged: as §1
The target of experiment [21] is T1, HDAC7 (Homo sapiens, UniProt Q8WUI4).
T1 sequence (Q8WUI4 1-952): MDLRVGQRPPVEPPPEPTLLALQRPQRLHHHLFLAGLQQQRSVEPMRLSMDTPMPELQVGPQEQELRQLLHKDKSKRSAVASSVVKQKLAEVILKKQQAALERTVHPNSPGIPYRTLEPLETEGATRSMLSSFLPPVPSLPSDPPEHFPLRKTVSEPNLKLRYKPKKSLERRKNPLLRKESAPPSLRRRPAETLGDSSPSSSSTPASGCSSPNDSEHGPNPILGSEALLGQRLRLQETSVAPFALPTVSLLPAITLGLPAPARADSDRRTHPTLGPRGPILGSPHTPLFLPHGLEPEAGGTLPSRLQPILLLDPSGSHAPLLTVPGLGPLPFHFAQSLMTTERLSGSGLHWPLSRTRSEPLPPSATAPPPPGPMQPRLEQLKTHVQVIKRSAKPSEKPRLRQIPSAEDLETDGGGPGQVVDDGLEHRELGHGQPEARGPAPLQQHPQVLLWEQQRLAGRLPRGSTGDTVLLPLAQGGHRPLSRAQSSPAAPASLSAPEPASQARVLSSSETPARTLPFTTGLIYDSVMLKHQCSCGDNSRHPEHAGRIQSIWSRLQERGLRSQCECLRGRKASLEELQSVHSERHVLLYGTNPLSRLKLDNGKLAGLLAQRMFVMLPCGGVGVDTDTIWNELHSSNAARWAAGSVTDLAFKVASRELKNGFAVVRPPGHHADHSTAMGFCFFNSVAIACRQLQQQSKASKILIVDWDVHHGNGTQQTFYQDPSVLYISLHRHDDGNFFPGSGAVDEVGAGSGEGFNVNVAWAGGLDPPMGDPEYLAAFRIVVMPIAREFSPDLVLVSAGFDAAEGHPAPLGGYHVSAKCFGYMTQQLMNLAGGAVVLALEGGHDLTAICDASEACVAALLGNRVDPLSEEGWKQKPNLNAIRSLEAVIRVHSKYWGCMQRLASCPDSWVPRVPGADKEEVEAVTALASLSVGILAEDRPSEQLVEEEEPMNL
Nature of the experiment: HDAC biochemical activity measurement (fluorescent substrate deacetylation).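 Note: fluorogenic deacetylation assay using acetyl-lysine substrate at 20 µM, enzyme and compound incubated 30 min at 37 °C, then developer added, fluorescence read at 360/460 nm.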 The following applies: HDAC7; 37° C. 30 minutes.

Each structure is given as a SMILES string. Like-named read-outs stand apart in the source and are kept apart here.

In the case of `CSc1ccc2nc1C(=O)NC(=C(C)C)C(=O)N[C@@H](C(C)C)C(=O)O[C@H](/C=C/CCSC(C)=O)CC(=O)NC2` [Compound 207], the GI50 worked out at 19 nM in [1]; 50 nM in experiment [2] (PANC-1 cells); 40 nM in experiment [3] (MCF-7 cells); 79 nM in [4]; 20 nM in experiment [5] (Hela cells); 30 nM in experiment [6] (DU145 cells). Also, the GI50 in experiment [7] was 27 nM; in [8] it was 55 nM; in experiment [9] it was 48 nM; in experiment [10] (MOLT-4 cells), 10 nM; in experiment [11], 57 nM; in experiment [12] (A549 cells), 30 nM. Besides, the GI50 worked out at 50 nM in experiment [13] (lncap cells); 46 nM in experiment [14]; 40 nM in experiment [15] (U937 cells); 38 nM in experiment [16]; 30 nM in experiment [17] (HT1080 cells); 33 nM in experiment [18]. Further, the GI50 is 30 nM in [19] (BGC-823 cells) and 21 nM in experiment [20]. In [21], the “IC50 HDAC7” value was “no activity”.

As to `C/C=C1\NC(=O)c2nc(F)cc(n2)CNC(=O)C[C@@H](/C=C/CCSC(C)=O)OC(=O)[C@H](C(C)C)NC1=O` [Compound 96], the GI50 amounted to 27 nM in experiment [1]; 40 nM in experiment [2]; 20 nM in experiment [3]; 57 nM in experiment [4]; 60 nM in experiment [5]; 20 nM in experiment [6]. The GI50 in [7] was determined as 61 nM; in experiment [8], 65 nM; in [9], 19 nM; in experiment [10], 30 nM; in experiment [11], 37 nM; in [12], 40 nM. The GI50 came to 30 nM in experiment [13]; 73 nM in experiment [14]; 20 nM in [15]; 72 nM in experiment [16]; 40 nM in experiment [17]; 48 nM in experiment [18]. Moreover, the results for the GI50 in experiment [19] and in experiment [20] were 20 nM and 54 nM, respectively. Besides, in experiment [21], the “IC50 HDAC7” value was “no activity”.

Take `CC(C)=C1NC(=O)c2cc(F)cc(n2)CNC(=O)C[C@@H](/C=C/CCS)OC(=O)[C@H](C(C)C)NC1=O` [Compound 137]: the concentration for 50% growth inhibition (GI50) in experiment [1] stood at 29 nM; in [2], 80 nM; in experiment [3] it was 30 nM; in experiment [4], 45 nM; in [5] it was 70 nM; in experiment [6] it was 30 nM. The GI50 in [7] was found to be 16 nM; in [8] it was 49 nM; in experiment [9] it was 35 nM; in experiment [10], 40 nM; in experiment [11] it was 81 nM; in experiment [12] it was 20 nM. For the same compound, the GI50 in experiment [13] was 20 nM; in [14], 53 nM; in experiment [15], 30 nM; in experiment [16] it was 48 nM; in experiment [17], 80 nM; in experiment [18] it was 43 nM. The values for the GI50 in experiment [19] and in [20] were 30 nM and 26 nM, respectively. Further, the “IC50 HDAC7” value in experiment [21] is “no activity”.

Consider `C/C=C1\NC(=O)c2cc(F)cc(n2)CNC(=O)C[C@@H](/C=C/CCS)OC(=O)[C@H](CCCCN)NC1=O` [Compound 117], for which the concentration for 50% growth inhibition (GI50) in [1] was determined as 16 nM; in experiment [2], 60 nM; in [3], 20 nM; in [4], 58 nM; in experiment [5], 80 nM; in experiment [6] it was 10 nM. In addition, the 50% growth inhibitory concentration (GI50) in experiment [7] turned out to be 34 nM; in experiment [8], 86 nM; in experiment [9], 35 nM; in experiment [10], 20 nM; in [11], 33 nM; in experiment [12], 60 nM. In addition, the concentration for 50% growth inhibition (GI50) in [13] is 20 nM; in experiment [14] it was 72 nM; in experiment [15], 30 nM; in [16], 22 nM; in experiment [17], 40 nM; in experiment [18], 66 nM. Besides, the GI50 was 70 nM in [19] and 59 nM in experiment [20]. In addition, in experiment [21], the “IC50 HDAC7” value is recorded as “no activity”.
